Holding throughout (assay type): functional
The test system of assay [1] is Escherichia coli. As to the kind of experiment: Antibacterial activity against Escherichia coli NCIM 2803 at 20 ug/ml after 24 hr by agar diffusion method. The note with it: NCIM 2803, 24 h, read-out: IZ.
The test system of assay [2] is G-361. As to the kind of experiment: Cytotoxicity against Homo sapiens (human) G361 cells assessed as cell growth at 10^-6 M by SRB assay relative to control. The following applies: read-out: Activity.
For assay [3], the system named is G-361. Description: Cytotoxicity against Homo sapiens (human) G361 cells assessed as cell growth at 10^-4 M by SRB assay relative to control. The note with it: read-out: Activity. In general terms: The SRB assay estimates cell density from bound dye.
Assay [4] relates to Bacillus subtilis. Description: Antibacterial activity against Bacillus subtilis NCIM 2545 at 10 ug/ml after 24 hr by agar diffusion method. The following applies: NCIM 2545, 24 h, read-out: IZ.
Assay [5] relates to Staphylococcus aureus. As to the kind of experiment: Antibacterial activity against Staphylococcus aureus NCIM 5021 at 10 ug/ml after 24 hr by agar diffusion method. The following applies: NCIM 5021, 24 h, read-out: IZ.
Assay [6] concerns G-361. Description: Cytotoxicity against Homo sapiens (human) G361 cells by SRB assay.
Assay [7] deals with Escherichia coli. Description: Antibacterial activity against Escherichia coli NCIM 2803 at 10 ug/ml after 24 hr by agar diffusion method. The following applies: NCIM 2803, 24 h, read-out: IZ. (In general: Agar diffusion results depend on both activity and mobility in agar.)
Assay [8] relates to Staphylococcus aureus. Description: Antibacterial activity against Staphylococcus aureus NCIM 5021 at 20 ug/ml after 24 hr by agar diffusion method. The following applies: NCIM 5021, 24 h, read-out: IZ.
The test system of assay [9] is G-361. As to the kind of experiment: Cytotoxicity against Homo sapiens (human) G361 cells assessed as cell growth at 10^-7 M by SRB assay relative to control. The following applies: read-out: Activity.
The subject of assay [10] is G-361. Description: Cytotoxicity against Homo sapiens (human) G361 cells assessed as cell growth at 10^-5 M by SRB assay relative to control. The following applies: read-out: Activity.
The test system of assay [11] is Staphylococcus epidermidis. Description: Antibacterial activity against Staphylococcus epidermidis NCIM 2493 at 10 ug/ml after 24 hr by agar diffusion method. The note with it: NCIM 2493, 24 h, read-out: IZ.
Assay [12] concerns Staphylococcus epidermidis. As to the kind of experiment: Antibacterial activity against Staphylococcus epidermidis NCIM 2493 at 20 ug/ml after 24 hr by agar diffusion method. The note with it: NCIM 2493, 24 h, read-out: IZ.
Assay [13] deals with Bacillus subtilis. As to the kind of experiment: Antibacterial activity against Bacillus subtilis NCIM 2545 at 20 ug/ml after 24 hr by agar diffusion method. The note with it: NCIM 2545, 24 h, read-out: IZ.

A value given as a limit tells only on which side of the number the result lay.

As a reminder, the GI50 is the concentration that inhibits growth by half. By LC50 is commonly meant the concentration lethal to half of the exposed cells or organisms. Higher therefore signals lower toxicity. A word on the TGI: it is the concentration giving total growth inhibition. Take `CCCCNc1nc(C(C)C)nc2c1cnn2-c1ccccc1`: the zone of inhibition at 20 µg/mL in [1] is 13.3 mm; in [8], 14.4 mm; in assay [12], 14.1 mm; in [13] it was 12.8 mm. Also, the growth at 1 µM in assay [2] came out at 100%. In [3], the growth at 100 µM was determined as 45.4%. The zone of inhibition at 10 µg/mL in assay [4] is 0 mm; in [5] it was 11 mm; in [7], 0 mm; in assay [11] it was 11 mm. Further, the GI50 in assay [6] is greater than 100 µM. For the same compound, in [6], the median lethal concentration (LC50) is greater than 100 µM. For the same compound, in assay [6], the total growth inhibition concentration (TGI) was greater than 100 µM. Moreover, in [9], the growth at 0.1 µM came to 100%. Also, the growth at 10 µM in [10] came out at 100%.
For `CC(C)c1nc(N2CCOCC2)c2cnn(-c3ccccc3)c2n1`, the zone of inhibition at 20 µg/mL in [1] amounted to 14.6 mm; in assay [8], 14.2 mm; in [12], 14.3 mm; in assay [13], 14.4 mm. In addition, the growth at 1 µM in assay [2] turned out to be 92.5%. For the same compound, the growth at 100 µM in [3] amounted to 6.9%. Moreover, the zone of inhibition at 10 µg/mL amounted to 11.3 mm in [4], 10.3 mm in assay [5], 10.6 mm in assay [7] and 11 mm in [11]. This compound also showed a GI50 in assay [6] of 2.6 µM. This compound showed a 50% lethal concentration (LC50) in [6] greater than 100 µM. Further, in [6], the TGI is greater than 100 µM. The growth at 0.1 µM in assay [9] stood at 100%. Moreover, the growth at 10 µM in [10] was found to be 77.6%.
Take `Cc1nc(NCc2ccco2)c2cnn(-c3ccccc3)c2n1`: the zone of inhibition at 20 µg/mL is 13.6 mm in [1], 12.7 mm in assay [8], 13.3 mm in assay [12] and 12.5 mm in assay [13]. The growth at 1 µM in assay [2] worked out at 100%. Moreover, the growth at 100 µM in assay [3] was found to be 30.1%. Besides, it took 39 µM to inhibit growth in assay [6] by half (GI50). The compound also registered a 50% lethal concentration (LC50) in assay [6] greater than 100 µM. In assay [6], this compound had a TGI greater than 100 µM. Further, the growth at 0.1 µM in assay [9] was determined as 100%. In assay [10], the growth at 10 µM worked out at 100%.
`Cc1nc(NC(C)C)c2cnn(-c3ccccc3)c2n1`: the zone of inhibition at 20 µg/mL was found to be 13 mm in [1], 13.3 mm in [8], 13.7 mm in assay [12] and 13.6 mm in [13]. Further, the growth at 1 µM in [2] is 100%. Also, in assay [3], the growth at 100 µM came out at 13.5%. It took 32 µM to inhibit growth in [6] by half (GI50). Further, the LC50 in assay [6] is greater than 100 µM. The TGI in assay [6] is greater than 100 µM. In assay [9], the growth at 0.1 µM was 100%. In addition, in assay [10], the growth at 10 µM stood at 100%.
As to `CCNc1nc(C)nc2c1cnn2-c1ccccc1`, the zone of inhibition at 20 µg/mL was 13.4 mm in assay [1], 13.3 mm in [8], 13.3 mm in [12] and 13.3 mm in assay [13]. For the same compound, the growth at 1 µM in assay [2] turned out to be 100%. Also, in assay [3], the growth at 100 µM was found to be 29.2%. In addition, the GI50 in assay [6] is 38.7 µM. In assay [6], the LC50 was greater than 100 µM. This compound registered a TGI in assay [6] greater than 100 µM. The growth at 0.1 µM in assay [9] was found to be 100%. The growth at 10 µM in assay [10] came out at 99.6%.
On to `CC(C)NCc1nc(NC(C)C)c2cnn(-c3ccccc3)c2n1`, for which the zone of inhibition at 20 µg/mL in assay [1] came to 13 mm; in [8] it was 1.3 mm; in assay [12], 1.33 mm; in [13], 13.6 mm. Besides, the growth at 1 µM in assay [2] was determined as 100%. In addition, the growth at 100 µM in [3] stood at 56.5%. This compound also returned a GI50 in [6] greater than 100 µM. Further, the LC50 in [6] was greater than 100 µM. For the same compound, the TGI in assay [6] was greater than 100 µM. In addition, the growth at 0.1 µM in assay [9] worked out at 100%. Further, the growth at 10 µM in assay [10] was 99.7%.
Consider `CCCNc1nc(C)nc2c1cnn2-c1ccccc1`, for which the zone of inhibition at 20 µg/mL in [1] is 12.7 mm; in assay [8], 13.6 mm; in assay [12], 13.6 mm; in assay [13] it was 13 mm. Besides, the growth at 1 µM in assay [2] was 100%. Also, in assay [3], the growth at 100 µM amounted to 25.3%. Besides, growth in [6] was halved (GI50) at 36 µM. Also, the LC50 in [6] is greater than 100 µM. In assay [6], this compound registered a concentration for total growth inhibition (TGI) greater than 100 µM. Besides, the growth at 0.1 µM in assay [9] was 100%. For the same compound, the growth at 10 µM in assay [10] came out at 100%.
For the compound `CC1(C)S[C@@H]2[C@H](NC(=O)[C@H](N)c3ccc(O)cc3)C(=O)N2[C@H]1C(=O)O` [AMOXICILLIN], the zone of inhibition at 20 µg/mL came out at 18.7 mm in assay [1], 17.3 mm in [8], 16.6 mm in assay [12] and 19 mm in [13]. The zone of inhibition at 10 µg/mL stood at 16.3 mm in assay [4], 16.6 mm in assay [5], 15.5 mm in assay [7] and 13 mm in assay [11].
Consider `CCCCNc1nc(C)nc2c1cnn2-c1ccccc1`, for which the zone of inhibition at 20 µg/mL in assay [1] was 14.4 mm; in [8] it was 14.6 mm; in assay [12], 14.5 mm; in [13], 13.8 mm. Besides, the growth at 1 µM in assay [2] was 100%. Moreover, in assay [3], the growth at 100 µM is -30%. The zone of inhibition at 10 µg/mL in assay [4] was 0 mm; in [5], 11.3 mm; in assay [7], 11 mm; in [11], 11.1 mm. In addition, in [6], the GI50 worked out at 2.4 µM. This compound had a median lethal concentration (LC50) in [6] greater than 100 µM. This compound came in with a concentration for total growth inhibition (TGI) in assay [6] greater than 100 µM. The growth at 0.1 µM in assay [9] came to 100%. Besides, the growth at 10 µM in [10] is 100%.
`CCCCNc1nc(CC)nc2c1cnn2-c1ccccc1`: the zone of inhibition at 20 µg/mL in [1] was 12.7 mm; in [8], 13.3 mm; in assay [12] it was 13 mm; in assay [13] it was 12.8 mm. Further, in assay [2], the growth at 1 µM amounted to 96.5%. Further, the growth at 100 µM in assay [3] was -62.5%. This compound showed a concentration for 50% growth inhibition (GI50) in assay [6] of 2.02 µM. The same compound displayed an LC50 in [6] greater than 100 µM. Moreover, the TGI in [6] amounted to 32 µM. In addition, the growth at 0.1 µM in [9] is 100%. For the same compound, the growth at 10 µM in assay [10] is 84.8%.
As to `c1ccc(NCc2nc(Nc3ccccc3)c3cnn(-c4ccccc4)c3n2)cc1`, the zone of inhibition at 20 µg/mL is 13.3 mm in assay [1], 13.2 mm in [8], 13 mm in assay [12] and 13.6 mm in [13]. In addition, the growth at 1 µM in assay [2] came out at 100%. Besides, in [3], the growth at 100 µM was found to be 48.5%. Further, in [6], the GI50 is greater than 100 µM. The same compound displayed an LC50 in assay [6] greater than 100 µM. Also, in assay [6], the TGI is greater than 100 µM. Also, the growth at 0.1 µM in [9] was 100%. In addition, the growth at 10 µM in assay [10] is 99.7%.
For `CCCNCc1nc(NCCC)c2cnn(-c3ccccc3)c2n1`, the zone of inhibition at 20 µg/mL in [1] is 13.3 mm; in [8], 13.3 mm; in assay [12] it was 13.3 mm; in assay [13] it was 13.6 mm. In addition, the growth at 1 µM in assay [2] was found to be 99.6%. Further, the growth at 100 µM in assay [3] came out at 75.1%. In [6], the GI50 is greater than 100 µM. Further, the TGI in [6] is greater than 100 µM. Besides, the growth at 0.1 µM in [9] is 100%. In [10], the growth at 10 µM worked out at 100%.

For the origin of these results see ChEMBL document CHEMBL3044652, “Synthesis of novel 2-alkyl-4-substituted-amino-pyrazolo[3,4-d]pyrimidines as new leads for anti-bacterial and anti-cancer activity” (2013).
